This is an account of results in patent publication US8715653B2, “Modulation of Rhamm (CD168) for selective adipose tissue development” (The Regents of the University of California, priority 2006, dated 2014).

Test [1] has as its system Rh-/- fibroblasts. Put plainly: Random motility of fibroblasts by time-lapse cinemicrography. In kind it is cell-based, mouse. The protocol:
(§1) Cell culture medium and culture conditions were described previously in Zhang, S., Chang, M. C., Zylka, D., Turley, S., Harrison, R., and Turley, E. A. 1998. The hyaluronan receptor RHAMM regulates extracellular-regulated kinase. J Biol Chem 273:11342-11348; and Tolg, C., et al. 2003. Genetic deletion of receptor for hyaluronan-mediated motility (Rhamm) attenuates the formation of aggressive fibromatosis (desmoid tumor). Oncogene 22:6873-6882. PDGF-BB (25 ng/ml), HA (500 ng/ml-1 mg/ml) or FCS (10%) were added to 24 hrs serum-starved, 50% sub-confluent fibroblasts on fibronectin (25 μg/ml)-coated dishes (Zhang, S., Chang, M. C., Zylka, D., Turley, S., Harrison, R., and Turley, E. A. 1998. The hyaluronan receptor RHAMM regulates extracellular-regulated kinase. J Biol Chem 273:11342-11348; Hall, C. L., Lange, L. A., Prober, D. A., Zhang, S., and Turley, E. A. 1996. pp60(c-src) is required for cell locomotion regulated by the hyaluronanreceptor RHAMM. Oncogene 13:2213-2224). […]
(§2) For experiments assessing the motogenic effects of HA and PDGF-BB, cells were plated onto fibronectin-coated tissue culture flasks at 50% sub-confluence overnight then serum-starved for 24 hrs. […] For quantifying the effect of FCS, fibroblasts were plated at 50% sub-confluence overnight onto tissue culture dishes that had been pre-coated with serum proteins. […]
(§3) Efficient repair of excisional wounds also depends upon motility speed in response to motogens present in the microenvironment (See Ridley, A. J., Schwartz, M. A., Burridge, K., Firtel, R. A., Ginsberg, M. H., Borisy, G., Parsons, J. T., and Horwitz, A. R. 2003. Cell migration: integrating signals from front to back. Science 302:1704-1709). The velocity of migration stimulated by HA (FIG. 6A) or FCS (FIGS. 9A, 9B) was assessed directly using time-lapse cinemicrography of cells cultured on fibronectin-coated 2D tissue culture surfaces (Hall, C. L., Lange, L. A., Prober, D. A., Zhang, S., and Turley, E. A. 1996. pp60(c-src) is required for cell locomotion regulated by the hyaluronanreceptor RHAMM. Oncogene 13:2213-2224). […]

Test [2] relates to Wt fibroblasts. Described as above. In kind it is cell-based, mouse. Here is the method: as §1, §2, §3
Test [3] relates to Rh-/- fibroblasts. Briefly: Disassembly of phalloidin-positive actin stress fibers in response to PDGF-BB. In kind it is cell-based, mouse. The source says:
(§4) Tissue sections were stained for collagen (Masson's trichrome), α-smooth muscle actin, vimentin and tenascin following manufacturer's recommendations. Staining was quantified after counter-staining with Harris Hematoxylin (EM SCIENCE) and mounting in Cytoseal 60 (Tullberg-Reinert, H., and Jundt, G. 1999. In situ measurement of collagen synthesis by human bone cells with a sirius red-based colorimetric microassay: effects of transforming growth factor beta2 and ascorbic acid 2-phosphate. Histochem Cell Biol 112:271-276). Immunofluorescence of phospho-ERK1,2 was done as previously published (49). For the detection of droplets of neutral lipids, paraformaldehyde-fixed cells were stained with BODIPY 493/503 (25 μg/ml) (Gocze, P. M., and Freeman, D. A. 1994. Factors underlying the variability of lipid droplet fluorescence in MA-10 Leydig tumor cells. Cytometry 17:151-158). Actin stress fibers were detected with Oregon-green phalloidin.
(§5) Cell migration and invasion require the rapid assembly/disassembly of the actin cytoskeleton. Since intracellular Rhamm forms associate with the actin cytoskeleton and are required for v-src-mediated actin cytoskeleton disassembly, we compared the ability of Rh-/- fibroblasts with Rh^FL-rescued fibroblasts to disassemble phalloidin-positive actin stress fibers in response to PDGF-BB. […]

Test [4] has as its system Wt fibroblasts. The description is as above. In kind it is cell-based, mouse.
From the text: as §4, §5

In test [5] the test system is rat excisional skin wounds. Put plainly: Wound site (sub-cutaneous) adipogenesis in full thickness excisional wounds covered with collagen gel. In kind it is in vivo. Conditions: for adipogenesis within the wound site: rat excisional wounds, peptide in collagen gel, 14 days after wounding, histology. Here is the method: FIG. 14. Effect of a hyaluronan binding peptide on wound site (sub-cutaneous) adipogenesis. A. Full thickness excisional wounds were placed on the flanks of male Fisher rats then these were covered with collagen gels (matrix) containing either no peptide (matrix), hyaluronan binding peptide (at 200, 20 and 2 ug/woundsite) or scrambled peptide (at 200 ug/woundsite). The wound sites were excised 14 days after wounding and processed for histology. Micrographs show Mason Trichrome stained tissue sections through the center of the wounds.
Wt and Rh-/- mice (3-18 month old) or male Sprague-Dawley rats were anaesthetized by Halothane inhalation. Two full thickness wounds were placed on denuded back skin using a 4 mm metal punch. In the case of the rat experiments, 200 ul of a vitrogen solution (type 1 collagen solution that gels at 35-37C) containing no peptide, 2-200 μg hyaluronan binding peptide or scrambled peptide was used to cover the wounds. Animals were housed in individual cages for the experimental period. Wounds were harvested at varying times using a 8 mm metal punch from similar locations on the backs of mice of the same gender and age. Harvested wounds were fixed overnight in 4% paraformaldehyde and paraffin embedded as described in Tolg, C., et al. 2003. Genetic deletion of receptor for hyaluronan-mediated motility (Rhamm) attenuates the formation of aggressive fibromatosis (desmoid tumor). Oncogene 22:6873-6882;. Numbered serial sections were cut perpendicular to the wound edge starting at the wound center. The first and last sections were stained with Masson's trichrome and non-stained sections were used for immunohistochemistry. To ensure that serial sections were cut starting at the wound center, wound samples were cut in half through the wound center prior to embedding

Test [6] relates to uninjured skin of male Fisher rats. Briefly: Subcutaneous fat after injection in collagen solution under uninjured skin. In kind it is in vivo. Conditions: uninjured rat skin, injected in type 1 collagen solution, harvested 4, 7 and 14 days after injection. The protocol: 0.2 , 2 and 20 ug of hyaluronan binding peptide or scrambled peptide were mixed in 1 ml of type 1 collagen solution, (3 mg/m1) and 0.25 ml of the solution was injected under the skin on the flanks of 3 month old male Fisher rats. Hair at the site of injection was removed prior to injection using Nair for marking purposes. Injection sites were harvested by skin punches at 4, 7 and 14 days after injection.

[7] abbreviates: listed as Hyaluronan binding peptides.

“Also recorded” adds a separate entry of the source.

Consider `COc1cccc(-c2cc(=O)c3ccccc3o2)c1N` [PD98059], for which the “effect on motility in response to PDGF-BB” value in the test on Rh-/- fibroblasts [1] is “no effect”; in the test with Wt fibroblasts [2] (Wt fibroblasts, PDGF-BB), “significantly inhibit”. In the test with Wt fibroblasts [2] (primary Wt fibroblasts, FCS), the “effect on random motility in the presence of FCS” value is “significantly reduce motility”. The “effect on actin disassembly in response to PDGF-BB” value in the test with Rh-/- fibroblasts [3] is on record as “no effect”; with Wt fibroblasts [4], “significantly inhibit”.
Take “STMMRSHKTRSHHV (Hyaluronan binding peptide.)”: the “concentrations that increase subcutaneous adipogenesis” value in test [5] (rat excisional skin wounds) is reported as 20-200 μg/wound site. Moreover, the “adipogenesis within the wound site” value in test [5] is on record as “filled with adipocytes”; in test [5] (setting [7]) it was “promoted adipogenesis; also recorded: increase subcutaneous adipogenesis”. The “subcutaneous fat / accumulation of adipocytes at injection site” value in test [6] is “increases subcutaneous fat”; in test [6] (setting [7]), “promoted adipogenesis”.
